Patent US20060252762A1, “Methods for treatment of multiple sclerosis” (priority 2001, published 2006)
Read-outs that look alike come from different tables or passages of the source. One block for each molecule: values may come before it.

Key:
[1] = biological target: T1, GST-cGB-PDE5 fusion protein (cGMP binding sites of human PDE5A) (Homo sapiens, UniProt O76074); assay: cGMP binding assay with GST-cGB-PDE5 fusion protein; conditions: for competition with cGMP binding to GST-cGB-PDE5 at high concentration: compound 100 μM, cGMP 2 μM
T1 construct: made in house; host or cells: E. coli BL21 (DE3)
Method: 5′-3′, Inc. kits for total RNA followed by oligo (dT) column purification of mRNA are used with HT-29 cells. […] It is then cloned into pGEX-5X-3 glutathione-S-transferase (GST) fusion vector (Pharmacia Biotech )with tac promoter, and EcoRI and XhoI cut sites. The fusion vector is then transfected into E. Coli BL21 (DE3) bacteria (Invitrogen). The transfected BL21 bacteria is grown to log phase, and then IPTG is added as an inducer. The induction is carried at 20° C. for 24 hrs. The bacteria are harvested and lysed. The soluble cell lysate is incubated with GSH conjugated Sepharose 4B (GSH-Sepharose 4B). The GST-cGB-PDE5 fusion protein can bind to the GSH-Sepharose beads, and the other proteins are washed off from beads with excessive cold PBS.
Then, the mixture is transferred to Brandel MB-24 cell harvester with GF/B as the filter membrane followed by 2 washes with 10 mL of cold 5 mM potassium buffer(pH 6.8). The membranes are then cut out and transferred to scintillation vials followed by the addition of 1 mL of H2O and 6 mL of Ready Safe™ liquid scintillation cocktail to each vial. The vials are counted on a Beckman LS 6500 scintillation counter.
The quenching by filter membrane or other debris are also calibrated.

PDE5 = biological target: T2, PDE5 (Homo sapiens, UniProt O76074); assay: cGMP PDE inhibition, PDE5; assay type: biochemical
T2 construct: partially purified cGMP-specific PDE isolated from HT-29 cells; endogenous in cells; host or cells: HT-29

[2] = acute toxicity study in rats; assay type: in vivo
[3] = acute and seven-dose toxicity in dogs (capsules); assay type: in vivo
Method: Therefore, these dogs were subsequently administered seven consecutive doses of 1000 mg/kg/day.

[4] = seven-day dose-range finding study in rats; assay type: in vivo; conditions: seven days, 2000 mg/kg/day
28-day study in rats = assay type: in vivo; conditions: 28 days
Method: A 28-day study in rats was also carried out at 0, 50, 500 and 2000 mg/kg/day.

[5] = long-term safety assessment study in rats, 91 days; assay type: in vivo; conditions: males and females at 200 and 500 mg/kg/day
[6] = 91-day oral study in dogs; assay type: in vivo; conditions: 91 days, 150 and 300 mg/kg/day
[7] = single, escalating dose human clinical safety study; assay type: in vivo; conditions: oral, 50 mg BID, 100 mg BID, 200 mg BID and 400 mg BED
U937 cells = assay: apoptosis induction of U937 cells (active caspase 3 indirect immunofluorescence); assay type: cell-based; conditions: 1 μM
Method: U937 cells (from ATCC Rockville, Md.) were grown in RPMI media supplemented with 5% FCS, glutamine, antibiotic/antimycotic and sodium pyruvate. Total RNA was isolated from two U937 cultures, one treated with 5 nM TPA for 48 hours and one grown in normal media as listed above, using the Rouche High Pure RNA Isolation Kit (cat#1 828 665) as per manufacturers protocol. cDNA was then synthesized from the total RNA using GibcoBRL SuperscriptII (Cat #18064-022) reverse transcriptase as per manufacturers protocol. The resulting cDNA was used as a template for RT-PCR reactions using primer sets specific for PDE2 (forward: […], reverse: […]) or PDE5 (forward: […], reverse: […]). mRNA for PDE2 and 5 were both present in the untreated U937 cells. Upon treatment with TPA, the relative amounts of PDE2 mRNA increased 5 fold. Therefore, U937 cells treated with TPA and driven to differentiate into an activated macrophage like state have elevated levels of PDE2 mRNA (see FIG. 1).
The presence of PDE2 and PDE5 protein within U937 cells was confirmed by indirect immunofluorescence (IIF). U937 cells were cultured as above. Two U937 cultures, one grown in the presence of 5 nM TPA for 48 hours and one grown in normal media were processed. […]
The level of apoptosis in U937 cells was quantified by scoring 500 consecutive cells for the presence of active caspase 3. […]

[8] = test system: TNF-α secreted by TPA-induced U937 cells; assay: TNF-α immunoassay on U937 cell culture media; assay type: cell-based; conditions: cell culture media (FIG. 12)
Method: One function of macrophages is to modulate the activity of other inflammatory cells through various cytokine molecules.
TNF-α levels in the cell culture media were determined by using the TNF-α Immunoassay from R&D Systems (Cat. # DTA50) according to the manufacturer's protocol.

Compound: CC1=C(CC(=O)NCc2ccccc2)c2cc(F)ccc2/C1=C\c1ccncc1.Cl [Compound 38, (Z)-5-Fluoro-2-Methyl-(4-Pyridylidene)-3-(N-Benzyl)Indenylacetamide Hydrochloride]
- competition with cGMP in binding to cGMP binding sites of GST-cGB-PDE5 ([1]; 3H-cGMP 2 μM): does not bind to the cGMP-binding site
- IC50 (PDE5): 4 µM
- intraperitoneal LD50 ([2]; intraperitoneal): greater than 1000 mg/kg
- oral LD50 ([2]; oral): > 2000 mg/kg
- necropsy finding ([2]; single dose 1000 mg/kg intraperitoneally): mesenteric adhesions seen in some animals
- oral LD50 [3]: greater than 1000 mg/kg
- effects [4]: labored breathing and/or abnormal respiratory sounds, decreased weights gains and food consumption in male rats, and increased liver weights in female rats
- body weight changes, ophthalmoscopic examinations, hematological and blood chemistry values and urinalysis (28-day study in rats): unremarkable
- liver and thyroid increases at the lower doses (28-day study in rats; lower doses): not statistically significant
- liver and thyroid/parathyroid weights [5]: dose-related trend to increased liver and thyroid/parathyroid weights
- feces [6]: Orange discoloration of the feces
- side effects [7]: no significant side effects at any dose
- apoptosis as reflected by the presence of active caspase 3 (FIG. 8) (U937 cells): undergoing apoptosis
- level of TNF-α secreted [8]: significantly reduced

Compound: Nc1ncnc2c1ncn2[C@@H]1O[C@@H]2COP(=O)(O)O[C@H]2[C@H]1O [Cyclic AMP]
- competition with cGMP in binding to cGMP binding sites of GST-cGB-PDE5 [1]: did not compete

Compound: O=C([O-])C1CCN(c2nc(NCc3ccc4c(c3)OCO4)c3cc(Cl)ccc3n2)CC1.[Na+] [Example E4021]
- competition with cGMP in binding to cGMP binding sites of GST-cGB-PDE5 ([1]; 3H-cGMP 2 μM): None of the PDE5 inhibitors showed any competition

Compound: CSc1ccc(/C=C2/C(C)=C(CC(=O)O)c3cc(F)ccc32)cc1 [Sulindac sulfide, sulindac sulfide]
- competition with cGMP in binding to cGMP binding sites of GST-cGB-PDE5 ([1]; 3H-cGMP 2 μM): None of the PDE5 inhibitors showed any competition

Compound: CC1=C(CC(=O)O)c2cc(F)ccc2/C1=C\c1ccc(S(C)(=O)=O)cc1 [exisulind]
- competition with cGMP in binding to cGMP binding sites of GST-cGB-PDE5 ([1]; 3H-cGMP 2 μM): None of the PDE5 inhibitors showed any competition

Compound: CCCOc1ccccc1-c1nc2nn[nH]c2c(=O)[nH]1 [zaprinast]
- competition with cGMP in binding to cGMP binding sites of GST-cGB-PDE5 ([1]; 3H-cGMP 2 μM): None of the PDE5 inhibitors showed any competition

The remaining lines, values ahead:

- competition with cGMP in binding to cGMP binding sites of GST-cGB-PDE5 ([1]; 3H-cGMP 2 μM): did not compete
Compound: CCCCOC1C2OP(=O)(O)OCC2OC1n1cnc2c(N)ncnc21 (stereo not shown) [2′-O-butyl-cAMP]

- competition with cGMP in binding to cGMP binding sites of GST-cGB-PDE5 ([1]; 3H-cGMP 2 μM): did not compete
Compound: CCCCOC1C2OP(=O)(O)OCC2OC1n1cnc2c(=O)[nH]c(N)nc21 (stereo not shown) [2′-O-butyl-cGMP]

- competition with cGMP binding to GST-cGB-PDE5 at high concentration [1]: can partially compete
Compound: O=c1[nH]cnc2c1ncn2[C@@H]1O[C@@H]2COP(=O)(O)O[C@H]2[C@H]1O [Cyclic IMP]

- competition with cGMP binding to GST-cGB-PDE5 at high concentration [1]: can partially compete
Compound: Nc1nc2c(nc(Br)n2[C@@H]2O[C@@H]3COP(=O)(O)O[C@H]3[C@H]2O)c(=O)[nH]1 [Example 8-bromo-cGMP, 8-bromo-cGMP]

- competition with cGMP in binding to cGMP binding sites of GST-cGB-PDE5 ([1]; 3H-cGMP 2 μM): did not compete
Compound: Nc1ccn([C@@H]2O[C@@H]3COP(=O)(O)O[C@H]3[C@H]2O)c(=O)n1 [cCMP, cyclic CMP]

- competition with cGMP in binding to cGMP binding sites of GST-cGB-PDE5 ([1]; 3H-cGMP 2 μM): did not compete
Compound: O=c1ccn([C@@H]2O[C@@H]3COP(=O)(O)O[C@H]3[C@H]2O)c(=O)[nH]1 [cUMP, cyclic UMP]
